One compound from article PMC10388363, “Novel 1,4-Dihydropyridines as Specific Binders and Activators of SIRT3 Impair Cell Viability and Clonogenicity and Downregulate Hypoxia-Induced Targets in Cancer Cells” (Journal of Medicinal Chemistry, 2023) can be followed below.

The nature of data set [1]: Cell viability / cell death in healthy HaCaT cells. To be noted: human, HaCaT cells (healthy keratinocytes), HaCaT. It counts as cell-based, human. The procedure:
Breast cancer cell line MDA-MB-231, anaplastic thyroid cancer cell line CAL-62 and human keratinocytes HaCaT were purchased from ATCC and were cultured in RPMI 1640 medium (R0883 Sigma Aldrich-MERCK) (MDA-MB-231 and CAL-62) or DMEM medium (11965092, Gibco) supplemented with 10% fetal bovine serum (Sigma-Aldrich-MERCK, F9665), 2 mM glutamine (G7513; Sigma-Aldrich-MERCK), 100 units/mL penicillin and 0.1 mg/mL streptomycin (P0781; Sigma-Aldrich-MERCK). Adherent cells were detached by Trypsin–EDTA solution (TA049; Sigma-Aldrich-MERCK). Cells were maintained at 37 °C in humidified incubator with 5% CO2. Cells were treated with […] (CoCl2) (Merck; C8661) dissolved in distilled, sterile water for 24 h to induce hypoxia (200 μM). […] SIRT3 inhibitor 3-TYP was dissolved in DMSO and added to a final concentration of 1 μM for 24 and/or 48 h.
Cell viability was assessed by the trypan blue exclusion assay. At the end of treatments, cells were harvested and stained with 0,4% trypan blue (Merck; T8154). The cell suspension was applied to a hemocytometer and counted with phase contrast microscopy (NIKON EclipseTE2000U, Nikon Netherlands, Amsterdam, The Netherlands).

Data set [2] has as its system acK68- and acK122-MnSOD in MDA-MB-231 cells. The data set is described as follows: Western blot of MnSOD acK68 and acK122 marks in MDA-MB-231 cells. It counts as cell-based, human. To be noted: 4 h, MDA-MB-231. On the procedure: K68-MnSOD acetylation promotes a transformation-permissive phenotype, leading to a chemotherapy-resistant breast cancer cell model using cisplatin and doxorubicin.[68] […] The specific SIRT3 inhibitor 3-TYP was utilized as negative control.
Breast cancer cell line MDA-MB-231, anaplastic thyroid cancer cell line CAL-62 and human keratinocytes HaCaT were purchased from ATCC and were cultured in RPMI 1640 medium (R0883 Sigma Aldrich-MERCK) (MDA-MB-231 and CAL-62) or DMEM medium (11965092, Gibco) supplemented with 10% fetal bovine serum (Sigma-Aldrich-MERCK, F9665), 2 mM glutamine (G7513; Sigma-Aldrich-MERCK), 100 units/mL penicillin and 0.1 mg/mL streptomycin (P0781; Sigma-Aldrich-MERCK). Adherent cells were detached by Trypsin–EDTA solution (TA049; Sigma-Aldrich-MERCK). Cells were maintained at 37 °C in humidified incubator with 5% CO2. Cells were treated with […] (CoCl2) (Merck; C8661) dissolved in distilled, sterile water for 24 h to induce hypoxia (200 μM). […]
The following antibodies were used in this study: ACTB (Merck; A5316), HIF1-α (Cell Signaling; 14179), HIF2/EPAS-1 (Santa Cruz Biotechnology sc-13596), HXKII (Santa Cruz Biotechnology sc-6521), CAIX (Novus Biotechnology NB100-417), SIRT3 (Cell Signaling; 2627S), MnSOD (Abcam ab13533), MnSOD K68 (Abcam ab137037), MnSOD K122 (Abcam ab214675), peroxidase-conjugated AffiniPure Goat Anti-Rabbit IgG (H + L) (Jackson ImmunoResearch; 111-035-003), and peroxidase-conjugated AffiniPure Goat Anti-Mouse IgG (H + L) (Jackson ImmunoResearch; 115-035-062).
Treated and untreated cells were collected and centrifuged at 3000 rpm for 5 min. […] Protein concentration was determined by the Bradford assay (Bio-Rad; 500-0205). […] After three more washes in PBST, the detection of the relevant protein was assessed by enhanced chemiluminescence (Lite Ablot TURBO, Euro-Clone; EMP012001). […]
(In general: Immunoblotting shows a protein as a band on a membrane.)

Another data set has as its system CAL-62 cells. The data set is described as follows: Clonogenic assay, CAL-62. It counts as cell-based. To be noted: Homo sapiens; CAL-62, 48 h, normoxia; read-out: IC50 against colonies formation. On the procedure:
Afterward, the selected compounds 3a–d were assayed at 50 μM for 24 and 48 h in CAL-62 and MDA-MB-231 cells to assess their ability to impair the cell viability and colony formation in either normoxia or hypoxia-induced condition, the latter obtained by adding a 200 μM cobalt chloride solution, as described in previous reports[69] (Figure 8). Most cancer cells, mainly solid types, are known to have an altered metabolism due to hypoxia, a non-physiological level of oxygen tension, which contributes to therapy resistance by causing cellular quiescence.[70] Moreover, hypoxic cancer cells can induce several factors that lead to cell proliferation and colony formation.[71]
Cells were seeded in a 100 mm dish and, once at 80–90% confluence, treated as described in the Results and Discussion section. After 24 and 48 h, cells were collected, counted, and 500 cells plated in a 100 mm dish. After about 7 days for CAL62 and 10 days for MDA-MB-231, plates were washed with phosphate-buffered saline solution (PBS); (Merck; 79382), and clones were fixed with 4% formaldehyde solution in PBS (Merck; F8775) at room temperature for 15 min. After that, the dishes were washed with PBS, and clones stained for 5 min with 0.5% crystal violet (Merck; C0775). Finally, the plates were washed with distilled water and air-dried. After scanning each individual dish, the colonies were counted the following day.

For the compound `CCOC(=O)C1=CN(C(=O)c2cc(OC)cc(OC)c2)C=C(C(=O)OCC)C1c1ccccc1` [Compound 3d, Diethyl 1-(3,5-dimethoxybenzoyl)-4-phenyl-1,4-dihydropyridine-3,5-dicarboxylate], the viability (usually the share of living cells, or the viability signal relative to a control) at 24 h, 5 µM in data set [1] (5 μM, 24 h, read-out: Cell viability (%) T24) is 96.1%. Besides, the viability at 48 h, 5 µM in data set [1] (5 μM, 48 h, read-out: Cell viability (%) T48) turned out to be 83.9%. Also, the viability at 24 h, 10 µM in data set [1] (10 μM, 24 h, read-out: Cell viability (%) T24) amounted to 91.6%. Further, the viability at 48 h, 10 µM in data set [1] (10 μM, 48 h, read-out: Cell viability (%) T48) turned out to be 66.1%. In addition, the viability at 24 h, 25 µM in data set [1] (25 μM, 24 h, read-out: Cell viability (%) T24) amounted to 84.7%. Also, the viability at 48 h, 25 µM in data set [1] (25 μM, 48 h, read-out: Cell viability (%) T48) was found to be 52.7%. Besides, the acK122-MnSOD deacetylation result in data set [2] (10 μM) is “significant acK122 deacetylation”. For the same compound, the “ratio acK68- or acK122-MnSOD/MnSOD” value in data set [2] (50 μM) is on record as “decrease”. Further, the IC50 (usually the midpoint of a concentration-inhibition curve) in the data set on CAL-62 cells was roughly 2.5 µM.
